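The compound was tested at five concentrations on cells cultured in 96-well plates, with a 48-hour exposure period. TGI: concentration producing complete growth inhibition.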
Columns and labels:
Assay in all cases: NCI-60 cell line screen, 48 h
KM12 colon = system: KM12 colon
786-0 renal = system: 786-0 renal
NCI/ADR-RES ovarian = system: NCI/ADR-RES ovarian
T-47D breast = system: T-47D breast
HCT-15 colon = system: HCT-15 colon
OVCAR-3 ovarian = system: OVCAR-3 ovarian
UO-31 renal = system: UO-31 renal
LOX IMVI melanoma = system: LOX IMVI melanoma
MDA-MB-231 breast = system: MDA-MB-231 breast
NCI-H522 lung = system: NCI-H522 lung
RXF 393 renal = system: RXF 393 renal

| SMILES | TGI (KM12 colon) [µM] | TGI (786-0 renal) [µM] | TGI (NCI/ADR-RES ovarian) [µM] | TGI (T-47D breast) [µM] | TGI (HCT-15 colon) [µM] | TGI (OVCAR-3 ovarian) [µM] | TGI (UO-31 renal) [µM] | TGI (LOX IMVI melanoma) [µM] | TGI (MDA-MB-231 breast) [µM] | TGI (NCI-H522 lung) [µM] | TGI (RXF 393 renal) [µM] |
| --- | --- | --- | --- | --- | --- | --- | --- | --- | --- | --- | --- |
| NC(Cc1[nH]nc2ccccc12)C(=O)O (stereo not drawn) | > 100 | > 100 | > 100 | > 100 | > 100 | > 100 | > 100 | > 100 | > 100 | > 100 | > 100 |
| C#CCOCC12C=CC(O1)C1COC(=O)C12 (stereo not drawn) | > 100 | > 100 | > 100 | > 100 | > 100 | > 100 | > 100 | > 100 | > 100 | > 100 | > 100 |
| NC(N)=NS(=O)(=O)c1ccc(NC(=O)c2cccc3c(NNc4ccc(S(N)(=O)=O)cc4)c4ccccc4nc23)cc1 | > 100 | > 100 | > 100 | 79.1 | > 100 | > 100 | > 100 | 36.5 | > 100 | 91.6 | > 100 |
| COC(=O)C1=C(C)NC(C)=C(C(=O)OC)C1c1cccc(N=O)c1 | 30.2 | 30.3 | 51 | 40.4 | 32.5 | 29 | 21 | 31.6 | 27.9 | 11.8 | 26.8 |
| COc1cc2[nH]c(=O)c3cc(-c4ccccc4)cc4c(Cl)nc(c1OC)c2c43 | > 100 | > 49.2 | > 38.3 | > 100 | > 75.8 | > 100 | > 65.1 | > 73.6 | > 100 | > 89.2 | > 55.7 |
| Cn1c2c(c3ccccc31)CCN1C(=O)C34CCCC3CC21S4 (stereo not drawn) | > 100 | > 100 | > 100 | > 100 | > 100 | > 100 | > 100 | > 100 | > 100 | > 100 | > 100 |
| CC1(C)OC[C@@H](C[C@H](O)COCc2ccccc2)O1 | > 100 | > 100 | > 100 | > 100 | > 100 | > 100 | > 100 | > 100 | > 100 | > 100 | > 100 |
| Clc1cc(C(c2cc(Cl)sc2Cl)c2cc(Cl)sc2Cl)c(Cl)s1 | > 100 | > 100 | > 100 | > 100 | > 100 | > 100 | > 100 | > 100 | > 100 | > 100 | > 100 |
| CC(=O)OCC(=O)O[C@@H]1[C@H]2[C@@H](OC(=O)c3ccccc3)[C@@H](C)C[C@]2(O)[C@H](OC(C)=O)[C@@]2(C)C[C@]1(OC(C)=O)C[C@H]1C(=O)C(C)(C)[C@@H](OC(C)=O)[C@@H]12 | > 25 | > 25 | > 25 | > 25 | > 25 | > 25 | > 6.83 | > 25 | > 25 | > 25 | > 25 |
| COc1cccc(N2C(=O)CS(=O)(=O)C2c2cccc(Oc3ccccc3)c2)c1 (stereo not drawn) | > 100 | 44.4 | 77.3 | 81.1 | > 100 | > 100 | > 100 | 51.1 | > 100 | 37.6 | 71.1 |
| Nc1c(S(N)(=O)=O)cc(S(N)(=O)=O)cc1S(N)(=O)=O | > 100 | > 100 | > 100 | > 100 | > 100 | > 100 | > 100 | > 100 | > 100 | > 100 | > 100 |
| CCOC(=O)Cn1nnc2cc(Nc3c(C)[n+]([O-])c4cc(F)c(OCC)cc4[n+]3[O-])ccc21 | > 100 | > 100 | > 100 | > 100 | > 100 | > 100 | > 100 | > 100 | > 100 | > 100 | > 100 |
| O=C(O)C1=NN(c2ccc(S(=O)(=O)O)cc2)C2(C1)C(Cl)C(=O)N2c1nc2ccccc2s1 (stereo not drawn) | 34.1 | 32 | 56.2 | 44.8 | 42.4 | 33.8 | 22.9 | 12.7 | 37.5 | 25.8 | 34.8 |
| CC1CCc2sc3nc4n(c(=O)c3c2C1)CC(C)S4 (stereo not drawn) | > 100 | 65.6 | > 100 | > 100 | > 100 | 36.7 | 7.51 | 39.8 | 52.3 | > 100 | 55.2 |
| Cc1cnc2[nH]c(-c3cccc(F)c3)cc(=O)c2c1 | 1.7 | > 83.6 | 0.0395 | > 100 | 2.59 | 0.0373 | > 100 | > 100 | 0.614 | 0.108 | > 100 |
| Cc1cc(S(=O)(=O)Nc2n[nH]c(Nc3ccccc3)n2)c(SCC(=O)O)cc1Cl | > 100 | > 100 | > 100 | > 100 | > 100 | > 100 | > 100 | > 100 | > 100 | > 100 | > 100 |
| Cn1nc2c(c1N)Cc1c(nn(C)c1N)-c1ccccc1-2 | > 100 | > 100 | > 100 | > 100 | > 100 | > 100 | > 100 | > 100 | > 100 | > 100 | > 100 |
| O=c1ccn(-c2ccccn2)c(=O)n1-c1ccccn1 | > 100 | > 100 | > 100 | > 100 | > 100 | > 100 | > 100 | > 100 | > 100 | > 100 | > 100 |
| CCCCCCCCCCCCOCCOCCOCCOCCOCCOCC(=O)NC(Cc1ccccc1)C(=O)Oc1ccc([N+](=O)[O-])cc1 (stereo not drawn) | > 100 | > 100 | > 100 | > 100 | > 100 | 51.9 | > 100 | > 100 | > 100 | > 100 | > 100 |
| CN(C)CCNc1c([N+](=O)[O-])sc2ccc(Cl)cc12 | > 100 | 49.1 | > 100 | > 100 | > 100 | > 100 | > 100 | > 100 | > 100 | 87.4 | 82.8 |
| O=CN1CCN(C(=O)c2ccco2)C1=S | 20.1 | 12.6 | 75.3 | 19.3 | 25.7 | 15.4 | 13.8 | 14.8 | 33.9 | 17.4 | 20.1 |
| O=C(OC12CC3CC(CC(C3)C1)C2)c1ccc(NCc2cc(O)ccc2O)cc1 | 5.19 | 2.86 | 2.76 | 1.04 | 2.29 | 2.3 | 2.06 | 8.94 | 5.87 | 0.237 | 1.02 |
| C[n+]1c(-c2ccc(NC(=O)c3ccc(C(=O)Nc4ccc(-c5cn6ccccc6[n+]5C)cc4)cc3)cc2)cn2ccccc21 | > 100 | > 100 | > 100 | > 100 | > 100 | > 100 | > 100 | > 100 | > 100 | > 100 | > 100 |
